Experimental data: patent US4021566A, “2,5-Dimethyl-1-pyrrole-lower-alkanecarboxamides” (Sterling Drug Inc., priority 1975, dated 1977)
Where “and” joins values, the source holds several entries; their conditions need not be identical. Equal values may be shown once.

Columns and labels:
[1] = tested on: reserpine-induced stomach ulceration; test: Anti-ulcer activity, reserpine-induced anti-ulcer test method of Selmici et al.; type: in vivo, male, albino, Sprague-Dawley rats; conditions: rat, oral, reserpine 5.0 mg/kg i.m., vs control
Method: The anti-ulcer activity of the compounds was determined using the reserpine-induced anti-ulcer test method, described by Selmici et al., which is described briefly as follows: male, albino, Sprague-Dawley rats, weighing approximately 300 g., were divided into medicated and control groups of at least five rats each, and one positive control group of five rats medicated with a known drug at the active dose was run with each experiment. The rats were medicated forty-eight, twenty-four, and one hour before receiving an injection of reserpine. All test drugs were administered orally in terms of base, and the control rats received only the vehicle of medication. The rats were housed individually in wire cages, and food was withdrawn twenty-four hours prior to injection of reserpine, while water was allowed ad libitum. One hour following the third medication, 5.0 mg. of reserpine per kilogram of body weight in a concentration of 5 mg./ml. was injected intramuscularly in each rat. Eighteen hours after injection the rats were sacrificed, their stomachs removed, opened along the greater curvature, rinsed in warm saline, and pinned to a cork board for gross observation. The stomachs were examined for the number and size of ulcerations located in the glandular portion of the stomach with the aid of a one millimeter grid ocular with a 10x dissecting microscope. The degree of ulceration was arbitrarily graded according to the number and size of the ulcers as follows:
The points were added together and divided by the number of rats in each group to give an ulcer score, and the difference in the mean scores of the medicated and control group was expressed as percent inhibition of ulceration. Alternatively, the results can be expressed as a ratio of the total number of rats with any degree of ulceration (as the numerator) to the total number of rats in the test group (as the denominator).

gastric secretion = test: Anti-secretory activity, pylorus ligation method of Shay et al.; type: in vivo, male albino Wistar rats; conditions: rat; for Anti-Secretory % Inhibition of Free Acid / Anti-Secretory pH: oral; for Anti-Secretory % Inhibition of Free Acid: vs control; for Anti-Secretory pH: pH of gastric fluid
Method: In standard biological test procedures, described generally by Shay et al., Gastroenterology 5, 43 (1945) and 26, 906 (1954) and by Selmici et al., Acta Physiol. Acad. Sci. Hung. […] Anti-secretory activity was determined in male albino Wistar rats weighing approximately 180 g. using the method described by Shay et al. which is described as follows: the rats were divided into medicated groups of at least five rats each and control groups of ten rats. The rats were medicated orally once daily for two days prior to stomach ligation and once again immediately following ligation. All drugs were administered as the free base, and control rats received only the vehicle of medication. The rats were housed individually in wire cages, food was withdrawn forty-eight hours prior to surgery, and water was withdrawn at the time of surgery. Laparotomy was performed under light ether anesthesia, the pyloric-duodenal junction was ligated, and the wound was closed with metal clips and sprayed with a protective surgical dressing. Five hours following surgery, the rats were sacrificed, the stomach was removed, and the gastric juice collected. The gastric fluid was centrifuged, and total volume, color, and volume of solids were recorded. The pH of the gastric fluid was then determined on a Beckamn pH meter, and the "free" and "total" hydrochloric acid content of each gastric sample was determined by titrating an aliquot of the gastric fluid (diluted to approximately 10 ml. with distilled water) by titrating with 0.1N sodium hydroxide against Toepfers reagent and phenolphthalein, respectively. By determining the milliequivalents of hydrochloric acid per milliliter of gastric juice and knowing the total volume of gastric juice secreted by each rat, the total acid output can be calculated. Since pH is a function of "free" acid, the activity of the test compounds can be evaluated by comparison of the mean "free" acid of medicated rats with the mean "free" acid of the controls, and the activity can thus be expressed in terms of percent inhibition of free acid.

Row | Compound | Anti-Ulcer % Inhibition ([1]; dose 25 (mg/kg)) [%] | Anti-Ulcer % Inhibition ([1]; dose 50 (mg/kg)) [%] | Anti-Ulcer % Inhibition ([1]; dose 100 (mg/kg)) [%] | Anti-Secretory % Inhibition of Free Acid (gastric secretion; dose 12.5 (mg/kg)) [%] | Anti-Secretory pH (gastric secretion; dose 12.5 (unit not in table; mg/kg)) | Anti-Secretory pH (gastric secretion; dose 25 (mg/kg)) | Anti-Secretory % Inhibition of Free Acid (gastric secretion; dose 25 (mg/kg)) [%] | Anti-Secretory pH (gastric secretion; dose 50 (mg/kg)) | Anti-Secretory % Inhibition of Free Acid (gastric secretion; dose 50 (mg/kg)) [%] | Anti-Secretory pH (gastric secretion; dose 100 (mg/kg)) | Anti-Secretory % Inhibition of Free Acid (gastric secretion; dose 100 (mg/kg)) | Anti-Secretory pH (gastric secretion; dose 200 (mg/kg)) | Anti-Secretory % Inhibition of Free Acid (gastric secretion; dose 200 (mg/kg)) [%] | anti-secretory activity (in words) (gastric secretion; in vivo)
1 | Cc1c(C)c(C)n(CC(N)=O)c1C [Example 1, 2,3,4,5-tetramethyl-1-pyrroleacetamide] | 61 | 87 | 94 | 44 | 1.3 | 1.5 | 49 | 2.9 | 83 | 3.6 | 91% | – | – | –
2 | Cc1ccc(C)n1CC(N)=O [Example 2, 2,5-dimethyl-1-pyrroleacetamide] | – | 40 | – | – | – | – | – | 1.7 | 21 | 2.7 and 2.6 | 78% and 63% | 4.6 | 100 | –
3 | Cc1c(C)c(C)n(CCC(N)=O)c1C [Example 3, β-(2,3,4,5-tetramethyl-1-pyrrole)propionamide] | 36 | 66 | – | – | – | – | – | – | – | 2.4 | 60% | – | – | –
4 | NC(=O)Cn1cccc1 [Reference, pyrrole-1-acetamide, reference compound] | – | – | – | – | – | – | – | – | – | 1.7 | 46% | – | – | has anti-secretory activity
